US20050222054A1, “Combination comprising a CDK inhibitor and doxorubicin” (Cyclacel Limited, priority 2002, published 2005)
Entries after “also recorded” stand apart in the source; their conditions may differ.

Legend:
[1] = tested on: osteosarcoma line SaOS-2 (pRb-deficient); details: pRb-deficient SaOS-2, in combination with doxorubicin; not seen in SaOS-2 transfected with Rb; cited from earlier work
[2] = tested on: SK-UT-1 cells; assay: Flow cytometry DNA cell cycle analysis; type: cell-based, human; details: 48 h treatment
[3] = tested on: POMC (Rb deficient) tumours in POMC-Cre/POMC-Luc;Rb-flox/flox compound mutant mice; details: doxorubicin 5 mg/kg intravenously once a week for four weeks; in the combination, roscovitine 500 mg/kg orally twice daily for two days before each doxorubicin
Excerpt: A conditional mouse model for retinoblastoma-dependent sporadic cancer was generated (Vooijs et al; Cancer Res 2002 Mar 15; 62(6): 1862-7; 2002) which permits non-invasive monitoring of pituitary tumour development in live animals via in vivo bioluminescence imaging of luciferase expression. This mouse model permits the longitudinal monitoring of tumour onset, progression and response to therapeutic agents that specifically target the retinoblastoma pathway. By way of summary, a retinoblastoma conditional KO line was crossed with a POMC-Cre/POMC-Luciferase transgenic line to generate POMC-Cre/POMC-Luc;Rb-flox/flox compound mutant mice. These mice develop POMC (Rb deficient) tumours (Vooijs et al, ibid) and as illustrated in FIG. 3.
In this study, doxorubicin was administered once a week for four weeks (5 mg/kg; intravenously).

| SMILES | sensitisation to the cytotoxic effects of doxorubicin [1] | % of total, G1 [2] | % of total, G2M [2] | % of total, Go [2] | % of total, S [2] | tumour response (bioluminescence) [3] |
| --- | --- | --- | --- | --- | --- | --- |
| CN1CC[C@H](c2c(O)cc(O)c3c(=O)cc(-c4ccccc4Cl)oc23)[C@H](O)C1 [flavopiridol] | significantly sensitised |  |  |  |  |  |
| CC[C@H](CO)Nc1nc(NCc2ccccc2)c2ncn(C(C)C)c2n1 [Roscovitine, 6-benzylamino-2-[(R)-1-ethyl-2-hydroxyethylamino]-9-isopropylpurine] |  | 36% | 19% | 23% | 16% |  |
| COc1cccc2c1C(=O)c1c(O)c3c(c(O)c1C2=O)C[C@@](O)(C(=O)CO)C[C@@H]3O[C@H]1C[C@H](N)[C@H](O)[C@H](C)O1 [Doxo] |  | 9% | 43% | 22% | 18% | delay tumorigenesis; also recorded: temporarily halts tumour progression |
